Results published in publication PMC9607578, “Chemopreventive Effect on Human Colon Adenocarcinoma Cells of Styrylquinolines: Synthesis, Cytotoxicity, Proapoptotic Effect and Molecular Docking Analysis” (Molecules, 2022).
Where two headings read alike, the source gives them in different places.

Columns and labels:
SW620 cells [1] = test: Cytotoxic activity, sulforhodamine B (SRB) staining; format: cell-based, human; settings: for IC50: Homo sapiens, SW-620, mean ± SE, read-out: SW620 IC50
Procedure: (§1) For the biological assays, the human colon adenocarcinoma cell line SW480 and its metastatic derivative SW620 were used. Additionally, the nonmalignant cell line HaCaT was used to find the selectivity index of the compounds. All cell lines were obtained by the Colombian Plant Chemistry Group of the Faculty of Exact and Natural Sciences of the University of Antioquia (Medellín, Colombia) from the European Collection of Authenticated Cell Cultures (ECACC, Salisbury, UK). Cells were cultured in a DMEM medium with 4500 mg/L of glucose and L-glutamine (Sigma-Aldrich, Burlington, MA, USA), supplemented with 10% heat-inactivated (56 °C) horse serum (Gibco, Waltham, MA, USA), 1% penicillin/streptomycin (Sigma-Aldrich, Burlington, MA, USA), and 1% non-essential amino acids (Sigma-Aldrich, Burlington, MA, USA). For all experiments, horse serum was reduced to 3%, and the medium was supplemented with […] of transferrin, 5 ng/mL of selenium, and […] of insulin (ITS; Sigma-Aldrich, Burlington, MA, USA). All cell lines were incubated at 37 °C in a 5% CO2 atmosphere. Additionally, cell cultures were constantly monitored with PCR (Sigma-Aldrich, Burlington, MA, USA) for Mycoplasma spp. to control contamination with this agent.
(§2) To evaluate the effect of styrylquinolines on the viability of the SW480, SW620, and HaCaT cell lines, sulforhodamine B (SRB) staining was used. SRB is a colorimetric assay that indirectly estimates the number of living cells based on the ability of SRB to bind to protein components of adherent cells. Briefly, the malignant cell lines were seeded at a final density of 2.0 × 10^4 cells/well, and the nonmalignant cell line was seeded at a final density of 1.5 × 10^4 cells/well in 96-well tissue culture plates. All cell lines were incubated at 37 °C in a 5% CO2 atmosphere for 24 h to enable cell adherence, and they were then treated for 24 and 48 h with increasing concentrations (0.01–160 µM) of the styrylquinolines or their respective precursors (8-hydroxyquinoline and resveratrol), as well as 1% DMSO (negative control) and 5-FU (standard drug). After treatment, cells were fixed with trichloroacetic acid (50% v/v; PanReac AppliChem, Barcelona, Spain) for a period of one hour at 4 °C. After this, the cells were incubated for 30 min at room temperature with 0.4% (w/v) SRB (Sigma-Aldrich, Burlington, MA, USA). To remove unbound SRB, the cells were washed with 1% acetic acid, and the plates were allowed to dry at room temperature. Protein-bound SRB was solubilized with 10 mM Tris-base (Amresco, Cleveland, OH, USA) for 30 min at room temperature under constant agitation, and absorbance was measured at 490 nm in a microplate reader (Bio-Rad iMark^TM, Hercules, CA, USA). Finally, the concentration of the compound that inhibits 50% of cell growth (IC50) and the selectivity index (SI) were determined.

SW480 cells [2] = test: as above; format: cell-based, human; settings: for IC50: Homo sapiens, SW480, mean ± SE, read-out: SW480 IC50
Procedure: as §1, §2

HaCaT cells = test: as above; format: cell-based; settings: Homo sapiens, mean ± SE, read-out: HaCaT IC50
Procedure: as §1, §2

SW620 cells [3] = test: Intracellular ROS production, 2',7'-DCFDA probe; format: cell-based, human; settings: SW620, 24 h, treated at IC50, mean ± SE
Procedure: (§3) In order to evaluate the effect of the chosen styrylquinolines on the production of ROS in malignant cells, the 2′,7′-dichlorofluorescein diacetate (2′,7′-DCFDA) probe (Calbiochem, San Diego, CA, USA) was used as described by Kim et al.. Briefly, malignant cells were seeded at a final density of 2.5 × 10^5 cells/well in 6-well tissue culture plates for 24 h at 37 °C in a 5% CO2 atmosphere. […] After treatment, 2′,7′-DCFDA was added to a final concentration of 10 µM and incubated at 37 °C for 30 min. Finally, representative images of each well were taken using a fluorescence microscope (Axio Vert. A1; ZEISS, Jena, Germany) and Zen blue 3.4 software. The cell lysate was obtained from each well, and relative fluorescence units (RFU) were measured at excitation/emission wavelength (Ex/Em) = 485/525 nm using the Varioskan Lux microplate reader (Thermo Fisher Scientific, Waltham, MA, USA). The total protein concentration was quantified with the BCA method using the Pierce^TM BCA kit (Thermo Fisher Scientific, Waltham, MA, USA) to normalize the UFR.

SW480 cells [4] = test: Intracellular ROS production, 2',7'-DCFDA probe; format: cell-based, human; settings: SW480, 48 h, treated at IC50, mean ± SE
Procedure: as §3

SW620 cells [5] = test: Antiproliferative activity, SRB staining, 0-8 days; format: cell-based, human
Procedure: (§4) The antiproliferative activity of styrylquinolines with higher selective cytotoxicity toward malignant cells was also tested with SRB staining. Briefly, cells were seeded to a final density of 2.5 × 10^3 cells/well in 96-well tissue culture plates and incubated under the same conditions described for cytotoxic activity. After 24 h, the cells were treated with increasing concentrations (5–80 µM) of the selected hybrids or with 1% DMSO (negative control) for 0, 2, 4, 6, and 8 days. Culture media were replaced every 48 h to guarantee the basic nutrients required for cell growth and viability, maintaining the concentrations of each of the selected hybrids. After each incubation time, cells were fixed and stained, and the absorbance was measured as described above.

SW480 cells [6] = test: Antiproliferative activity, SRB staining, 0-8 days; format: cell-based, human
Procedure: as §4

Oc1ccc(/C=C/c2ccc3cccc(O)c3n2)cc1O [Compound 3d]
SI (IC50 HaCaT / IC50 SW620) (SW620 cells [1]; 24 h treatment): 3.0
SI (IC50 HaCaT / IC50 SW620) (SW620 cells [1]; 48 h treatment): 12.3
IC50 (SW620 cells [1]; 24 h treatment): 54.6 ± 7.5 µM
IC50 (SW620 cells [1]; 48 h treatment): 6.4 ± 1.1 µM
SI (IC50 HaCaT / IC50 SW480) (SW480 cells [2]; 24 h treatment): 1.0
SI (IC50 HaCaT / IC50 SW480) (SW480 cells [2]; 48 h treatment): 1.9
IC50 (SW480 cells [2]; 24 h treatment): 160 ± 16.6 µM
IC50 (SW480 cells [2]; 48 h treatment): 42.5 ± 5.2 µM
IC50 (HaCaT cells; 24 h treatment): 164 ± 14.1 µM
IC50 (HaCaT cells; 48 h treatment): 78.9 ± 2.3 µM
ROS levels (SW620 cells [3]): 1.8 ± 0.1 RFU
ROS levels (SW480 cells [4]): 3.3 ± 0.2 RFU
Concentration required to significantly decrease cell viability percentage from day 2 post-treatment (SW620 cells [5]; SW620, day 2): 20 µM
Concentration from which cell viability percentage is decreased to 0% / high percentage of reduction (SW620 cells [5]; SW620, treatment up to 8 days): 40 µM
Concentration required to significantly decrease cell viability percentage from day 2 post-treatment (SW480 cells [6]; SW480, day 2): 40 µM
Concentration from which cell viability percentage is decreased to 0% / high percentage of reduction (SW480 cells [6]; SW480, treatment up to 8 days): 40 µM
